This is an account of results in ChEMBL document CHEMBL1201862, “PubChem BioAssay data set” (2004).

Each structure is given as a SMILES string.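 Compound exposure: 48 hours, 5 concentrations, 96-well plates. GI50 is the concentration that inhibits growth by half.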 Activity calls are given as the source filed them. No stated cut-off is given here; in the data, active = GI50 up to about 1.1 µM and inactive = higher.

Some test systems named below: OVCAR-5; HOP-92; UACC-62; M14; HL-60; SF-539; OVCAR-3; SK-MEL-2; UACC-257; SF-295; RPMI-8226; BT-549; NCI-H460; UO-31; MDA-MB-231; SR; Hs-578T; IGROV-1; HOP-62; NCI-H226.
Assay in all cases: inhibition of tumour cell growth, NCI panel, 48 h

In the case of `COc1cccc2c1C(CO)N1C(C#N)C3CC(C(=O)O)C(C1C2)N3C` (centres undefined), the GI50 was 2.85 µM (inactive) with OVCAR-5; 1.99 µM (inactive) in the test on HOP-92; 1.16 µM (inactive) in the test with UACC-62; 4.37 µM (inactive) in the test on M14; 1.52 µM (inactive) in the test with HL-60; 1.41 µM (inactive) in the test with SF-539. The GI50 was 1.23 µM (inactive) in the test on OVCAR-3; 1.21 µM (inactive) in the test on SK-MEL-2; 1.66 µM (inactive) with UACC-257; 4.7 µM (inactive) with SF-295; 1.15 µM (inactive) in the test on RPMI-8226; 0.213 µM (active) in the test with BT-549. The GI50 in the test with NCI-H460 is 5.19 µM (inactive); with UO-31, 1.59 µM (inactive); in the test on MDA-MB-231, 0.15 µM (active); in the test with SR, 2.08 µM (inactive); with Hs-578T, 0.238 µM (active).

Take `CC[C@@H](O)C[C@H]1CCC[C@@]2(C[C@@H]3OC(=O)/C=C/[C@@](C)(O)[C@@H](O)[C@H](C)[C@@H](O)[C@H](OC4CCC(N(C)C)C(C)O4)[C@@H](O)[C@](C)(O)CCCCC/C=C/[C@@H]4CC(C)(C)O[C@@]4(O)C[C@H](O2)[C@H]3C)O1` (some centres undefined): the GI50 is 14.8 µM (inactive) in the test on OVCAR-5; 13.7 µM (inactive) with HOP-92; 6.37 µM (inactive) in the test with UACC-62; 1.85 µM (inactive) in the test with M14; 3.75 µM (inactive) in the test with HL-60; 10.9 µM (inactive) in the test on SF-539. For the same compound, the GI50 was 12.9 µM (inactive) with OVCAR-3; 10.5 µM (inactive) in the test on SK-MEL-2; < 0.01 µM (active) in the test with UACC-257; < 0.01 µM (active) with SF-295; 6.44 µM (inactive) in the test with IGROV-1; < 0.01 µM (active) in the test on RPMI-8226. The GI50 in the test on BT-549 is 12.6 µM (inactive); in the test on HOP-62 it was 13.4 µM (inactive); in the test on NCI-H460, 4.23 µM (inactive); with UO-31, < 0.0388 µM (active); in the test with MDA-MB-231 it was 17.5 µM (inactive); in the test on SR it was 1.06 µM (active). For the same compound, the GI50 in the test on Hs-578T is 12.8 µM (inactive).

As for `N#CC1(C#N)[C@@H]2CCC=C(Sc3ccccc3)[C@@H]21`, the GI50 is 17.8 µM (inactive) in the test on OVCAR-5; 14.9 µM (inactive) in the test on HOP-92; 18.4 µM (inactive) in the test with UACC-62; 13.2 µM (inactive) with M14; 8.59 µM (inactive) in the test with HL-60; 15.5 µM (inactive) in the test on SF-539. In addition, the GI50 in the test on OVCAR-3 is 17.2 µM (inactive); with SK-MEL-2, 14.6 µM (inactive); in the test on UACC-257, 17.5 µM (inactive); in the test on NCI-H226, 13.9 µM (inactive); in the test with SF-295, 16.5 µM (inactive); with IGROV-1, 19.8 µM (inactive). For the same compound, the GI50 was 12.9 µM (inactive) in the test with RPMI-8226; 23 µM (inactive) in the test with BT-549; 19.5 µM (inactive) in the test on NCI-H460; 22.2 µM (inactive) in the test with MDA-MB-231; 13.1 µM (inactive) in the test with SR; > 100 µM (inactive) in the test on Hs-578T.

As to `Cc1ccc(C)c(NC(=O)C(Cc2c[nH]c3ccccc23)NC(=O)OCc2ccccc2)c1` (centres undefined), the GI50 with OVCAR-5 was 25.6 µM (inactive); with HOP-92, 17.2 µM (inactive); in the test with UACC-62, 15.9 µM (inactive); with M14, 13.6 µM (inactive); with HL-60, 3 µM (inactive); in the test with SF-539 it was 8.53 µM (inactive). In addition, the GI50 with OVCAR-3 is 29.7 µM (inactive); with SK-MEL-2, 16 µM (inactive); in the test on UACC-257, 10.6 µM (inactive); in the test with SF-295, 25.8 µM (inactive); with IGROV-1, 18.2 µM (inactive); in the test on RPMI-8226, 12 µM (inactive). Besides, the GI50 with BT-549 is 21.8 µM (inactive); in the test with HOP-62 it was 48.8 µM (inactive); in the test on NCI-H460, 13.7 µM (inactive); in the test on UO-31, 15.4 µM (inactive); in the test with MDA-MB-231, 16.1 µM (inactive); in the test on SR, 14.3 µM (inactive). Besides, the GI50 with Hs-578T is 58.7 µM (inactive).

Turning to `Oc1ccc(O)c(CNc2ccc(C(O)C(F)(F)F)cc2)c1` (centres undefined), the GI50 with OVCAR-5 is 20.5 µM (inactive); in the test on HOP-92 it was 13.6 µM (inactive); in the test on UACC-62, 15.7 µM (inactive); in the test with M14 it was 14.8 µM (inactive); in the test on HL-60, 3.42 µM (inactive); in the test on SF-539, 4.85 µM (inactive). For the same compound, the GI50 in the test on OVCAR-3 was 3.98 µM (inactive); in the test on SK-MEL-2 it was 20.1 µM (inactive); in the test on UACC-257, 18.4 µM (inactive); with NCI-H226, 18.4 µM (inactive); in the test with SF-295 it was 16.4 µM (inactive); in the test with IGROV-1, 12.9 µM (inactive). Further, the GI50 is 12.1 µM (inactive) in the test with BT-549; 15.6 µM (inactive) in the test with HOP-62; 21.5 µM (inactive) in the test with NCI-H460; 10.3 µM (inactive) in the test on UO-31; 15.6 µM (inactive) in the test on MDA-MB-231; 6.3 µM (inactive) with SR. The GI50 with Hs-578T was 41.2 µM (inactive).

As for `CC(=O)Oc1ccc2ccc(=O)oc2c1OC(C)=O`, the GI50 in the test on OVCAR-5 is > 100 µM (inactive); with HOP-92, 64.3 µM (inactive); in the test with UACC-62, 43.9 µM (inactive); in the test on M14 it was 78 µM (inactive); with HL-60, 17.1 µM (inactive); in the test with SF-539, 43.4 µM (inactive). In addition, the GI50 with OVCAR-3 was 29.9 µM (inactive); in the test with SK-MEL-2, > 100 µM (inactive); with UACC-257, > 100 µM (inactive); with SF-295 it was 41.5 µM (inactive); in the test with IGROV-1, 57.1 µM (inactive); in the test on RPMI-8226 it was 28.4 µM (inactive). Further, the GI50 with BT-549 is 40 µM (inactive); with HOP-62 it was 29.5 µM (inactive); in the test on NCI-H460, 14.9 µM (inactive); in the test on UO-31 it was 30.1 µM (inactive); in the test on MDA-MB-231 it was 29.5 µM (inactive); with SR it was 28 µM (inactive). Moreover, in the test on Hs-578T, the GI50 was 61.9 µM (inactive).

In the case of `O=C1OC(c2ccco2)=N/C1=C\c1cccc([N+](=O)[O-])c1`, the GI50 in the test on OVCAR-5, with HOP-92, in the test with UACC-62, in the test on M14, in the test on HL-60 and with SF-539 was > 100 µM (inactive) in each case. Moreover, the GI50 in the test with OVCAR-3, in the test on SK-MEL-2, in the test on UACC-257, in the test on NCI-H226, in the test with SF-295 and with IGROV-1 was > 100 µM (inactive) each time. Moreover, the GI50 in the test on RPMI-8226, with BT-549, in the test on HOP-62, in the test with NCI-H460, in the test with MDA-MB-231 and with SR was > 100 µM (inactive) each time. The GI50 with Hs-578T is > 100 µM (inactive).

Consider `COC(=O)C(Cc1nc2ccccc2nc1O)C(=O)C(=O)Nc1cc(C(F)(F)F)ccc1Cl` (centres undefined), for which the GI50 with OVCAR-5 is 19.4 µM (inactive); with HOP-92, 11.6 µM (inactive); in the test with UACC-62 it was 18.2 µM (inactive); in the test with M14, 16.7 µM (inactive); in the test on HL-60, 10.3 µM (inactive); with OVCAR-3, 12.8 µM (inactive). Moreover, the GI50 with SK-MEL-2 is 16.1 µM (inactive); in the test on UACC-257, 28.3 µM (inactive); in the test on NCI-H226, 18 µM (inactive); with SF-295, 28.3 µM (inactive); in the test with IGROV-1 it was 12.2 µM (inactive); with RPMI-8226, 7.01 µM (inactive). The GI50 is 14.9 µM (inactive) with BT-549; 17.4 µM (inactive) in the test on HOP-62; 19 µM (inactive) in the test on NCI-H460; 15.5 µM (inactive) with UO-31; 22.2 µM (inactive) with MDA-MB-231; 4.58 µM (inactive) in the test with SR. Besides, the GI50 with Hs-578T was 12.7 µM (inactive).
